Results from US20220053762A1, “HERBICIDAL COMPOSITIONS” (Bayer Aktiengesellschaft, priority 2018, published 2022).

System: harmful plant species
Test: Specific trial examples: binary compositions applied by the post-emergence method, synergistic effect according to Colby (Tables 3.1-3.2)
Assay type: in vivo
Description: When the observed efficacies already exceed the formal sum total of the values of the tests with individual applications, they also exceed the expected value according to Colby, which is calculated using the formula below and is likewise regarded as an indication of synergism (cf. S. R. Colby; in Weeds 15 (1967) p. 20 to 22):
Seeds or rhizome pieces of mono- and dicotyledonous weeds are placed in sandy loam in pots, covered with soil and grown in a greenhouse under good growth conditions (temperature, air humidity, water supply). Three weeks after sowing, the test plants are treated at the three-leaf stage with the compositions according to the invention. The compositions according to the invention formulated as spray powders or as emulsion concentrates are sprayed onto the green plant parts in various dosages with an application rate of 300 to 800 l/ha of water (equivalent).
The sum total of the effects of the individual applications is reported under E^A; Expected values according to Colby are each reported under E^C.
The rating period is reported in days after application (DAT).

Structure (SMILES): C=C[C@]1(C(=O)N[C@H]2CO[C@@H](C(=O)NOC)C2)CC(c2cc(C)cc(F)c2)=NO1 (relative stereo) [Compound A3, (5S)-3-(3-fluoro-5-methylphenyl)-N-[rel-(3R,5R)-5-(methoxycarbamoyl)tetrahydrofuran-3-yl]-5-vinyl-4H-isoxazole-5-carboxamide]
- Herbicidal action 28 DAT against Amaranthus palmeri (res.) (15 g a.i./ha): 10%
- Herbicidal action 28 DAT against Amaranthus palmeri (res.) (45 g a.i./ha): 20%
- Herbicidal action 28 DAT against Kochia scoparia (45 g a.i./ha): 20%
- Herbicidal action against Abutilon theophrasti (Z61 28 DAT, g a.i./ha: r459 30, r460 15): 10%
- Herbicidal action against Amaranthus palmeri (res.) (Z61 28 DAT, g a.i./ha: r467 90, r468 30, r469 15, r470 5): 10%
- Herbicidal action against Brachiaria platyphylla (Z61 28 DAT, g a.i./ha: r479 30, r480 1.7): 10%
- Herbicidal action against Eleusine indica (Z61 28 DAT, g a.i./ha: r487 270, r488 5): 70%
- Herbicidal action 28 DAT [%] against Pharbitis purpurea (post-emergence, single active compound, g a.i./ha: r396 50, r398 5): 70%

Structure (SMILES): C=C[C@]1(C(=O)N[C@@H]2C=C(C(=O)NS(C)(=O)=O)OC2)CC(c2cc(F)cc(F)c2)=NO1 [Compound A4, (5S)-3-(3,5-difluorophenyl)-N-[(3R)-5-(methylsulfonylcarbamoyl)-2,3-dihydrofuran-3-yl]-5-vinyl-4H-isoxazole-5-carboxamide]
- Herbicidal action 14 DAT against Alopecurus myosuroides (1 g a.i./ha): 10%
- Herbicidal action 14 DAT against Bromus sterilis (1 g a.i./ha): 20%
- Herbicidal action 14 DAT against Lolium rigidum (resistant biotype) (1 g a.i./ha): 10%
- Herbicidal action 14 DAT against Matricaria inodora (1 g a.i./ha): 40%
- Herbicidal action 14 DAT against Poa annua L. (1 g a.i./ha): 20%
- Herbicidal action 14 DAT against Viola tricolor (1 g a.i./ha): 30%
- Herbicidal action 28 DAT against Alopecurus myosuroides (1 g a.i./ha): 0%
- Herbicidal action 28 DAT against Bromus sterilis (1 g a.i./ha): 10%
- Herbicidal action 28 DAT against Lamium purpureum L. (1 g a.i./ha): 20%
- Herbicidal action 28 DAT against Matricaria inodora (1 g a.i./ha): 10%
- Herbicidal action 28 DAT against Viola tricolor (1 g a.i./ha): 0%
- Herbicidal action 14 DAT against Centaurea cyanus (4 g a.i./ha): 30%
- Herbicidal action 14 DAT against Lamium purpureum L. (4 g a.i./ha): 30%
- Herbicidal action 14 DAT against Lolium rigidum (resistant biotype) (4 g a.i./ha): 10%
- Herbicidal action 14 DAT against Matricaria inodora (4 g a.i./ha): 30%
- Herbicidal action 14 DAT against Viola tricolor (4 g a.i./ha): 30%
- Herbicidal action 28 DAT against Bromus sterilis (4 g a.i./ha): 30%
- Herbicidal action 28 DAT against Lolium rigidum (4 g a.i./ha): 10%
- Herbicidal action 28 DAT against Lolium rigidum (resistant biotype) (4 g a.i./ha): 0%
- Herbicidal action 28 DAT against Matricaria inodora (4 g a.i./ha): 10%
- Herbicidal action 28 DAT against Phalaris minor (4 g a.i./ha): 10%
- Herbicidal action 28 DAT against Viola tricolor (4 g a.i./ha): 0%
- Herbicidal action 14 DAT against Alopecurus myosuroides (16 g a.i./ha): 30%
- Herbicidal action 14 DAT against Centaurea cyanus (16 g a.i./ha): 40%
- Herbicidal action 14 DAT against Poa annua L. (16 g a.i./ha): 40%
- Herbicidal action 28 DAT against Galium aparine (16 g a.i./ha): 20%
- Herbicidal action against Galium aparine ((Z90) 28 DAT, g a.i./ha: r575 16, r576 270, r577 90, r578 30): 20%
- Herbicidal action against Lamium purpureum L. ((Z90) 28 DAT, g a.i./ha: r586 16, r587 30): 30%
- Herbicidal action against Lolium rigidum ((Z90) 28 DAT, g a.i./ha: r594 16, r595 30): 10%
- Herbicidal action against Matricaria inodora ((Z90) 28 DAT, g a.i./ha: r602 4, r603 90): 10%
- Herbicidal action against Viola tricolor ((Z90) 28 DAT, g a.i./ha: r624 4, r625 270): 0%
- Herbicidal action in [%] 28 DAT against Galium aparine (post-emergence, single active compound (A4 series), g a.i./ha: r491 16, r492 50): 20%
- Herbicidal action in [%] 14 DAT against Lamium purpureum L. (post-emergence, single active compound (A4 series), g a.i./ha: r501 4, r502 1, r503 450): 30%
- Herbicidal action in [%] 28 DAT against Lamium purpureum L. (post-emergence, single active compound (A4 series), g a.i./ha: r512 4, r513 1, r514 450): 20%
- Herbicidal action in [%] 28 DAT against Lolium rigidum (resistant bio type) (post-emergence, single active compound (A4 series), g a.i./ha: r523 1, r524 450): 0%
- Herbicidal action in [%] 14 DAT against Poa annua L. (post-emergence, single active compound (A4 series), g a.i./ha: r533 16, r534 450): 40%

Structure (SMILES): C=C[C@]1(C(=O)N[C@H]2CO[C@@H](C(=O)NS(=O)(=O)C(F)(F)F)C2)CC(c2cc(F)cc(F)c2)=NO1 (relative stereo) [Compound A1, (5S)-3-(3,5-difluorophenyl)-N-[rel-(3R,5R)-5-(trifluoromethylsulfonylcarbamoyl)tetrahydrofuran-3-yl]-5-vinyl-4H-isoxazole-5-carboxamide]
- Herbicidal action 28 DAT against Lolium rigidum (resistant biotype) (1.67 g a.i./ha): 0%
- Herbicidal action 28 DAT against Lolium rigidum (sensitive biotype) (1.67 g a.i./ha): 0%
- Herbicidal action 28 DAT against Alopecurus myosuroides (sensitive biotype) (5 g a.i./ha): 0%
- Herbicidal action 28 DAT against Avena fatua (5 g a.i./ha): 50%
- Herbicidal action 28 DAT against Bromus sterilis (5 g a.i./ha): 0%
- Herbicidal action 28 DAT against Centaurea cyanus (5 g a.i./ha): 20%
- Herbicidal action 28 DAT against Euphorbia heterophylla (5 g a.i./ha): 0%
- Herbicidal action 28 DAT against Galium aparine (5 g a.i./ha): 0%
- Herbicidal action 28 DAT against Hordeum murinum (5 g a.i./ha): 0%
- Herbicidal action 28 DAT against Ipomoea purpurea (5 g a.i./ha): 0%
- Herbicidal action 28 DAT against Lamium purpureum (5 g a.i./ha): 20%
- Herbicidal action 28 DAT against Lolium rigidum (resistant biotype) (5 g a.i./ha): 0%
- Herbicidal action 28 DAT against Lolium rigidum (sensitive biotype) (5 g a.i./ha): 0%
- Herbicidal action 28 DAT against Phalaris minor (5 g a.i./ha): 0%
- Herbicidal action 28 DAT against Polygonum convolvulus (5 g a.i./ha): 0%
- Herbicidal action 28 DAT against Polygonum convulvulus (5 g a.i./ha): 50%
- Herbicidal action 28 DAT against Raphanus raphanistrum (5 g a.i./ha): 80%
- Herbicidal action 28 DAT against Stellaria media (5 g a.i./ha): 0%
- Herbicidal action 28 DAT against Veronica hederifolia (5 g a.i./ha): 0%
- Herbicidal action 28 DAT against Viola tricolor (5 g a.i./ha): 0%
- Herbicidal action 28 DAT against Alopecurus myosuroides (resistant biotype) (15 g a.i./ha): 60%
- Herbicidal action 28 DAT against Alopecurus myosuroides (sensitive biotype) (15 g a.i./ha): 60%
- Herbicidal action 28 DAT against Centaurea cyanus (15 g a.i./ha): 30%
- Herbicidal action 28 DAT against Euphorbia heterophylla (15 g a.i./ha): 10%
- Herbicidal action 28 DAT against Galium aparine (15 g a.i./ha): 30%
- Herbicidal action 28 DAT against Ipomoea purpurea (15 g a.i./ha): 0%
- Herbicidal action 28 DAT against Lamium purpureum (15 g a.i./ha): 50%
- Herbicidal action 28 DAT against Lolium rigidum (resistant biotype) (15 g a.i./ha): 0%
- Herbicidal action 28 DAT against Lolium rigidum (sensitive biotype) (15 g a.i./ha): 0%
- Herbicidal action 28 DAT against Phalaris minor (15 g a.i./ha): 60%
- Herbicidal action 28 DAT against Polygonum convolvulus (15 g a.i./ha): 70%
- Herbicidal action 28 DAT against Polygonum convulvulus (15 g a.i./ha): 93%
- Herbicidal action 28 DAT against Viola tricolor (15 g a.i./ha): 20%
- Herbicidal action against Echinochloa crus-galli (28 DAT, g a.i./ha: r22 270, r23 90, r24 30, r25 5, r26 1.67): 15%
- Herbicidal action against Eleusine indica (28 DAT, g a.i./ha: r62 270, r63 30, r64 15, r65 5): 40%
- Herbicidal action against Polygonum convulvulus (28 DAT, g a.i./ha: r137 270, r138 90, r139 30, r140 5): 50%
- Herbicidal action against Alopecurus myosuroides (resistant biotype) (28 DAT, g a.i./ha: r165 15, r166 90, r167 30): 60%
- Herbicidal action against Lolium rigidum (resistant bio type) (28 DAT, g a.i./ha: r220 15, r221 5, r222 270, r223 90): 0%
- Herbicidal action against Veronica hederifolia (28 DAT, g a.i./ha: r294 5, r295 90): 0%
- Herbicidal action 28 DAT against Euphorbia heterophylla (45 g a.i./ha): 35%
- Herbicidal action 28 DAT against Galium aparine (45 g a.i./ha): 50%
- Herbicidal action 28 DAT against Ipomoea purpurea (45 g a.i./ha): 10%
- Herbicidal action 28 DAT [%] against Digitaria sanguinalis (post-emergence, single active compound (Glyphosate series), g a.i./ha: r765 50, r767 15): 30%
- Herbicidal action 28 DAT [%] against Setaria viridis (post-emergence, single active compound (Glyphosate series), g a.i./ha: r786 450, r788 1.67): 10%
- Herbicidal action 28 DAT [%] against Abutilon theophrasti (post-emergence, single active compound (Glyphosate series), g a.i./ha: r796 450, r798 5): 0%
- Herbicidal action 28 DAT [%] against Echinochloa crus-galli (post-emergence, single active compound, g a.i./ha: r19 150, r20 50, r21 5): 15%
- Herbicidal action 28 DAT [%] against Bromus sterilis (post-emergence, single active compound, g a.i./ha: r172 5, r173 1.67, r174 450): 0%
- Herbicidal action 28 DAT [%] against Galium aparine (post-emergence, single active compound, g a.i./ha: r183 5, r184 50): 0%
- Herbicidal action 28 DAT [%] against Lamium purpureum (post-emergence, single active compound, g a.i./ha: r204 45, r205 50): 70%
- Herbicidal action 28 DAT [%] against Lolium rigidum (sensitive biotype) (post-emergence, single active compound, g a.i./ha: r214 15, r215 150, r216 50): 0%
- Herbicidal action 28 DAT [%] against Lolium rigidum (resistant biotype) (post-emergence, single active compound, g a.i./ha: r224 15, r225 5, r226 150, r227 50): 0%
- Herbicidal action 28 DAT [%] against Papaverrhoeas (post-emergence, single active compound, g a.i./ha: r235 5, r236 450, r237 50): 40%
- Herbicidal action 28 DAT [%] against Raphanus raphanistrum (post-emergence, single active compound, g a.i./ha: r282 5, r283 150, r284 50): 80%
- Herbicidal action 28 DAT [%] against Veronica hederifolia (post-emergence, single active compound, g a.i./ha: r292 5, r293 150): 0%
